The record followed here is PMC6366423 (Journal of Enzyme Inhibition and Medicinal Chemistry, 2019).

One assay deals with T1, hBuChE (Homo sapiens, UniProt P06276).
T1 construct: hBuChE from human serum (Sigma Aldrich, Madrid, Spain); purchased Sigma Aldrich; host or cells: human serum
As to the kind of experiment: biochemical. It counts as biochemical. To be noted: for IC50: mean ± SEM; for inhibition at 10 µM: read-out: hBuChE enzymatic inhibition (%).

In the next assay the target is T2, EeAChE (Electrophorus electricus, UniProt O42275).
T2 construct: EeAChE (type VI-S, purified from Electrophorus electricus); tissue type VI-S
As to the kind of experiment: biochemical. To be noted: for inhibition at 10 µM: read-out: EeAChE enzymatic inhibition (%). The protocol:
(§1) Inhibition of EeAChE and eqBuChE of hybrids 14a–p was carried out with EeAChE (type VI-S, purified from Electrophorus electricus) and eqBuChE (purified from equine serum) using Ellman’s protocol. Briefly, the reaction was performed in a final volume of 3 ml of a phosphate-buffered solution (0.1 M) at pH = 8.0 containing 5,5’-dithiobis-2-nitrobenzoic acid (DTNB) (2.625 μL, 0.35 mM), EeAChE (29 μl, 0.035 U/mL) or eqBuChE (60 μl, 0.05 U/mL), Bovine Albumin Serum phosphate-buffered solution (40 μL 1% w/v), and tested compound (3 µL). After 10 min of incubation, the substrate, AcTCh) iodide or butyrylthiocholine (BuTCh) iodide, was added, and the reaction was incubated for an additional 15 min.

Another assay has as its target T3, hMAOB (Homo sapiens, UniProt P27338).
T3 sequence (P27338 1-520): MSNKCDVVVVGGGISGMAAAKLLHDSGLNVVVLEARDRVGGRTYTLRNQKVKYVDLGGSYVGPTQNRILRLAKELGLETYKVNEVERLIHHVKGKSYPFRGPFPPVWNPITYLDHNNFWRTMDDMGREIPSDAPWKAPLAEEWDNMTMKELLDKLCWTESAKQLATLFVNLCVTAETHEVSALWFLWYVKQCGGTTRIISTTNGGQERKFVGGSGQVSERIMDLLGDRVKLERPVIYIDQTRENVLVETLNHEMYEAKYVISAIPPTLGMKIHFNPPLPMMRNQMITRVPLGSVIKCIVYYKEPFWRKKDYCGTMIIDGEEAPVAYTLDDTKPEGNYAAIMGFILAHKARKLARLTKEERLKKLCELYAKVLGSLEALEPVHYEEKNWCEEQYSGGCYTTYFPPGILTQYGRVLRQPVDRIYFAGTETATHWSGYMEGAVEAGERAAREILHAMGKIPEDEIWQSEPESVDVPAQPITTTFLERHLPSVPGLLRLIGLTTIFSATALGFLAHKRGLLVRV
As to the kind of experiment: MAO activity assay (kynuramine, HPLC-MS). The assay is classed as biochemical. Conditions: for inhibition at 10 µM: read-out: hMAOB enzymatic inhibition (%); for IC50: IC50 hMAOB, mean ± SEM.

A short description of assay [1]: Oxygen radical absorbance capacity assay (ORAC-FL). Conditions: Trolox equivalents (TE), mean (n = 3) ± SD.
The next assay concerns the target T4, eqBuChE (Equus caballus, UniProt P81908).
T4 construct: eqBuChE (purified from equine serum); from tissue; host or cells: equine serum
As to the kind of experiment: biochemical. The assay is classed as biochemical, equine. To be noted: for IC50: mean ± SEM. The method, then: as §1

In the next assay the target is T5, hAChE (Homo sapiens, UniProt P22303).
T5 construct: purchased Sigma Aldrich; host or cells: HEK 293
The experiment in a line: biochemical. Conditions: for inhibition at 10 µM: read-out: hAChE enzymatic inhibition (%); for IC50: mean ± SEM. It counts as biochemical.

For the next assay, the target named is T6, hMAOA (Homo sapiens, UniProt P21397).
T6 sequence (P21397 1-527): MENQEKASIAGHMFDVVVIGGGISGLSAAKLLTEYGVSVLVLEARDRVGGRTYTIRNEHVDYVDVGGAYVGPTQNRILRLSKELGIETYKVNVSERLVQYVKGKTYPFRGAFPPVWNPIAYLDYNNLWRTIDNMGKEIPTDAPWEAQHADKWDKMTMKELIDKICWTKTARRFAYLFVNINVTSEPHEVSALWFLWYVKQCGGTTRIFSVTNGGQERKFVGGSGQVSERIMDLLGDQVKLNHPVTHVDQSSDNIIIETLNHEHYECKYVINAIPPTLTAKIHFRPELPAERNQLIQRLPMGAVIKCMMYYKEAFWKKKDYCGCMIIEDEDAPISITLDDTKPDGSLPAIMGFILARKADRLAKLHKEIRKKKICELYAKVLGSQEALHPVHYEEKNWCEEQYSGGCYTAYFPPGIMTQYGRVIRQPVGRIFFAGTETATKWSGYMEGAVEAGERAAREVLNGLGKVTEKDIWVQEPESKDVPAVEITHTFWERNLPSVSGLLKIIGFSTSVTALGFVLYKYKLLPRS
The experiment in a line: MAO activity assay (kynuramine, HPLC-MS). It counts as biochemical. Conditions: for inhibition at 10 µM: read-out: hMAOA enzymatic inhibition (%).

Molecules are shown by their SMILES.

T2 sequence (O42275 24-633): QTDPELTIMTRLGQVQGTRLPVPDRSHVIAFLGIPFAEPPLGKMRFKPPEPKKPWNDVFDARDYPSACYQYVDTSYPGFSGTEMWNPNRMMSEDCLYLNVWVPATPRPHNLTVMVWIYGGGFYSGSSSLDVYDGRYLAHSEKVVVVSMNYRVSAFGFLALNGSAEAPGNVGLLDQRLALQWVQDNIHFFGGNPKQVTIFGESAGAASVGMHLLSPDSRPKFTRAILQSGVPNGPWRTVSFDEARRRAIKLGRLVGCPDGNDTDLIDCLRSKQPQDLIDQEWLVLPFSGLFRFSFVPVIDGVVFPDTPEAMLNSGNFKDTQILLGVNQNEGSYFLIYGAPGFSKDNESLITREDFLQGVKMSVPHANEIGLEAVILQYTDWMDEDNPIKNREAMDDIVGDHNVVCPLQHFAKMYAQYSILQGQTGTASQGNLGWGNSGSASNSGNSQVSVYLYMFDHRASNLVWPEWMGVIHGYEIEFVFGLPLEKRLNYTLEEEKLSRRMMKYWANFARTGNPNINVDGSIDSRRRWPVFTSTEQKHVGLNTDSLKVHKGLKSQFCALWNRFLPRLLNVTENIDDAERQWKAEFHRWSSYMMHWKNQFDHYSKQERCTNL
T1 sequence (P06276 29-602): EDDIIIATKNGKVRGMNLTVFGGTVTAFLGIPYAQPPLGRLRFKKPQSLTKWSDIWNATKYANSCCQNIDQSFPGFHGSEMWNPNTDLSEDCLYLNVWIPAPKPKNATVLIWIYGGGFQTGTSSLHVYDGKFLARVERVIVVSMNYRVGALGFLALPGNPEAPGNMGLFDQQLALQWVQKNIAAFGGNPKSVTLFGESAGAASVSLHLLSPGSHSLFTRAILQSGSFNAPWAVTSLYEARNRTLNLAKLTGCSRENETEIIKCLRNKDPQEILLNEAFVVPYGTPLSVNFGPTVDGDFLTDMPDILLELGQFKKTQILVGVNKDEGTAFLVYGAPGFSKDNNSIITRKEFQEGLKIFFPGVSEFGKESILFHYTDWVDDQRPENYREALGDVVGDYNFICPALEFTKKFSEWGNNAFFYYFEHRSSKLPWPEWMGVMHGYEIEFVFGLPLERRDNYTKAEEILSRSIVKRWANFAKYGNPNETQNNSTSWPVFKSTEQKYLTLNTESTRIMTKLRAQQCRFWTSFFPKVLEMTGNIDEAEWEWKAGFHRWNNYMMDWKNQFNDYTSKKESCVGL
T5 sequence (P22303 32-614): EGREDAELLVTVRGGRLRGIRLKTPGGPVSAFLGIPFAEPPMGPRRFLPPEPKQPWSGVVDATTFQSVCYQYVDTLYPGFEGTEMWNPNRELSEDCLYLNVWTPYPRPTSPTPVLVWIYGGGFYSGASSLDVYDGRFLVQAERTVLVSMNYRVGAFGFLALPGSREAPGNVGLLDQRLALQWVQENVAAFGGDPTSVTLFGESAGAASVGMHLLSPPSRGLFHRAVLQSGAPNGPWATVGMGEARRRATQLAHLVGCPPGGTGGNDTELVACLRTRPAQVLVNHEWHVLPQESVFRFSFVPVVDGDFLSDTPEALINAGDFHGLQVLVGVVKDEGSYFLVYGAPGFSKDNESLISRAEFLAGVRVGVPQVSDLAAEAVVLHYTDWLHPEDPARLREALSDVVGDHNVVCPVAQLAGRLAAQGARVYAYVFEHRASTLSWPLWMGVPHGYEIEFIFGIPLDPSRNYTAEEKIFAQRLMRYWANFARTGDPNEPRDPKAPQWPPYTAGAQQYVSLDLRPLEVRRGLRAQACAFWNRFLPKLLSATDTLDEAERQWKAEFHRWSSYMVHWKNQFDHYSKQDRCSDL
T4 sequence (P81908 whole entry): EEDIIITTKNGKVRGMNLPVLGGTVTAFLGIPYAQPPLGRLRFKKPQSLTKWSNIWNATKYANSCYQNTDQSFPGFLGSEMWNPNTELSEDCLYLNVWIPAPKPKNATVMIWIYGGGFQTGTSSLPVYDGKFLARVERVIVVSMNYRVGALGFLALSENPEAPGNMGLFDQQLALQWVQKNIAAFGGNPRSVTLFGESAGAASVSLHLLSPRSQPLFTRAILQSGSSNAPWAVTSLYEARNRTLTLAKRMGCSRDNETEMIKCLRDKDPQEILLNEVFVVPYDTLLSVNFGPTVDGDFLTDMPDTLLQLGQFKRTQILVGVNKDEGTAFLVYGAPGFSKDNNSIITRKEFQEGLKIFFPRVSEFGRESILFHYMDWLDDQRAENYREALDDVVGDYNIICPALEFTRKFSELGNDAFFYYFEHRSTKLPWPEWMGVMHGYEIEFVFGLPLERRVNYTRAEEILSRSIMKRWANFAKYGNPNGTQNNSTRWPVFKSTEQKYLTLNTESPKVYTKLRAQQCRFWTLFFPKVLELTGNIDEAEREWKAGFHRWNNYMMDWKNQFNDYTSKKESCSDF

The IC50 is the concentration that gives 50% inhibition. What is called inhibition is how much of the control response was suppressed. As for `O=C(CN(CC1CCN(Cc2ccccc2)CC1)C(=O)c1cc(=O)c2ccccc2o1)NCCc1c[nH]c2ccccc12` [14a], the IC50 against hBuChE worked out at 1170 nM; against eqBuChE, 496 ± 7.07 nM; against hMAOA, 2000 nM. For the same compound, the results for the inhibition at 10 µM at EeAChE, on hMAOB and on hAChE (at 10 μM) were under 50%, under 40% and under 50%, respectively. In addition, the “ORAC (Eq Trolox)” value in assay [1] was determined as 6.28 ± 0.12 Eq Trolox.

Regarding `COc1ccc2[nH]cc(CCNC(=O)CN(CC3CCN(Cc4ccccc4)CC3)C(=O)c3cc(=O)c4ccccc4o3)c2c1` [14b], the inhibition at 10 µM at hBuChE was under 50%; on EeAChE, under 50%; at hMAOB, under 40%; on hAChE (at 10 μM) it was under 50%; at hMAOA, under 40%. For the same compound, in assay [1], the “ORAC (Eq Trolox)” value amounted to 6.24 ± 0.05 Eq Trolox. The IC50 on eqBuChE is 636 ± 11.6 nM.

On to `CC(C)Oc1ccc2[nH]cc(CCNC(=O)CN(CC3CCN(Cc4ccccc4)CC3)C(=O)c3cc(=O)c4ccccc4o3)c2c1` [14c], for which the inhibition at 10 µM at hBuChE is under 50%; at EeAChE, under 50%; on hMAOB, under 40%; on hAChE (at 10 μM), under 50%; at hMAOA, under 40%. Moreover, the “ORAC (Eq Trolox)” value in assay [1] is 6.11 ± 0.07 Eq Trolox. Inhibition on eqBuChE was half-maximal at 246 ± 9.91 nM (IC50).

Take `CCCOc1ccc2[nH]cc(CCNC(=O)CN(CC3CCN(Cc4ccccc4)CC3)C(=O)c3cc(=O)c4ccccc4o3)c2c1` [14d]: the inhibition at 10 µM at hBuChE was under 50%; at EeAChE, under 50%; at hAChE (at 10 μM) it was under 50%; at hMAOA, under 40%. The “ORAC (Eq Trolox)” value in assay [1] was determined as 6.76 ± 0.09 Eq Trolox. This compound came in with an IC50 against eqBuChE of 46.9 ± 3.41 nM.

Consider `O=C(CN(CCC1CCN(Cc2ccccc2)CC1)C(=O)c1cc(=O)c2ccccc2o1)NCCc1c[nH]c2ccccc12` [14e], for which the IC50 at hBuChE worked out at 33.3 ± 0.55 nM; at EeAChE (mean ± SEM), 1430 ± 50 nM; against eqBuChE, 29.6 ± 2.38 nM; at hAChE, 2620 ± 530 nM. Moreover, the inhibition at 10 µM at hMAOB and on hMAOA was under 40% in each case. For the same compound, the “ORAC (Eq Trolox)” value in assay [1] was determined as 6.52 ± 0.37 Eq Trolox.

Consider `COc1ccc2[nH]cc(CCNC(=O)CN(CCC3CCN(Cc4ccccc4)CC3)C(=O)c3cc(=O)c4ccccc4o3)c2c1` [14f], for which the IC50 stood at 271.8 ± 1.75 nM against hBuChE, 80600 ± 13900 nM at hMAOB, 26 ± 2.37 nM at eqBuChE and 360 ± 160 nM against hAChE. Also, the “ORAC (Eq Trolox)” value in assay [1] is reported as 6.13 ± 0.09 Eq Trolox. The “hAChE, fold less active than Donepezil” value on hAChE is 15 fold. Also, the inhibition at 10 µM at hMAOA was under 40%.

In the case of `CC(C)Oc1ccc2[nH]cc(CCNC(=O)CN(CCC3CCN(Cc4ccccc4)CC3)C(=O)c3cc(=O)c4ccccc4o3)c2c1` [14g], the IC50 came out at 25 ± 0.2 nM against hBuChE, 1050 ± 60 nM against EeAChE (mean ± SEM), 6.29 ± 0.73 nM at eqBuChE and 2000 ± 70 nM at hAChE. Also, the inhibition at 10 µM at hMAOB and at hMAOA was under 40% throughout. Besides, in assay [1], the “ORAC (Eq Trolox)” value was 5.05 ± 0.15 Eq Trolox. Moreover, the “eqBuChE potency, fold more potent than Donepezil” value on eqBuChE is recorded as 133 fold.

With `CCCOc1ccc2[nH]cc(CCNC(=O)CN(CCC3CCN(Cc4ccccc4)CC3)C(=O)c3cc(=O)c4ccccc4o3)c2c1` [14h], the IC50 against hBuChE was determined as 63.9 ± 2.55 nM; at EeAChE (mean ± SEM), 850 ± 20 nM; at eqBuChE, 6.76 ± 0.49 nM; against hAChE, 2040 ± 660 nM. For the same compound, the inhibition at 10 µM on hMAOB and at hMAOA was under 40% in each case. Moreover, in assay [1], the “ORAC (Eq Trolox)” value was 6.07 ± 0.02 Eq Trolox. The “eqBuChE potency, fold more potent than Donepezil” value on eqBuChE was found to be 133 fold.

In the case of `O=C(CN(CCCC1CCN(Cc2ccccc2)CC1)C(=O)c1cc(=O)c2ccccc2o1)NCCc1c[nH]c2ccccc12` [14i], the inhibition at 10 µM at hBuChE is under 50%; at hMAOB, under 40%; on hAChE (at 10 μM), under 50%; on hMAOA, under 40%. The IC50 is 260 ± 10 nM at EeAChE (mean ± SEM) and 50.1 ± 5.19 nM against eqBuChE. Moreover, the “ORAC (Eq Trolox)” value came out at 6.92 Eq Trolox in assay [1] and 6.92 ± 0.32 Eq Trolox in assay [1] (listed as [14]i).

For `COc1ccc2[nH]cc(CCNC(=O)CN(CCCC3CCN(Cc4ccccc4)CC3)C(=O)c3cc(=O)c4ccccc4o3)c2c1` [14j], the inhibition at 10 µM at hBuChE is under 50%; on hMAOB, under 40%; at hAChE (at 10 μM) it was under 50%; at hMAOA, under 40%. Also, the IC50 against EeAChE (mean ± SEM) worked out at 270 nM; on eqBuChE it was 37.1 ± 0.46 nM. In addition, the “ORAC (Eq Trolox)” value in assay [1] was 3.31 ± 0.10 Eq Trolox.

Consider `CC(C)Oc1ccc2[nH]cc(CCNC(=O)CN(CCCC3CCN(Cc4ccccc4)CC3)C(=O)c3cc(=O)c4ccccc4o3)c2c1` [14k], for which the half-maximal inhibitory concentration (IC50) was 34.9 ± 0.85 nM at hBuChE; 360 ± 10 nM against EeAChE (mean ± SEM); 15200 nM against hMAOB; 18.21 ± 0.18 nM against eqBuChE; 2990 ± 160 nM at hMAOA. Besides, the “ORAC (Eq Trolox)” value in assay [1] turned out to be 2.27 Eq Trolox; in assay [1] (listed as [14]k) it was 2.27 ± 0.37 Eq Trolox. Further, the “hAChE enzymatic inhibition (%)” value on hAChE (at 10 μM) is “– ^b”.

As to `CCCOc1ccc2[nH]cc(CCNC(=O)CN(CCCC3CCN(Cc4ccccc4)CC3)C(=O)c3cc(=O)c4ccccc4o3)c2c1` [14l], the inhibition at 10 µM at hBuChE was under 50%; at hMAOB, under 40%; at hAChE (at 10 μM) it was under 50%; on hMAOA, under 40%. In addition, the IC50 against EeAChE (mean ± SEM) was 380 ± 10 nM; against eqBuChE, 9.03 ± 0.18 nM. Moreover, the “ORAC (Eq Trolox)” value in assay [1] amounted to 2.44 ± 0.16 Eq Trolox.

`O=C(CN(CCCCC1CCN(Cc2ccccc2)CC1)C(=O)c1cc(=O)c2ccccc2o1)NCCc1c[nH]c2ccccc12` [14m]: the inhibition at 10 µM at hBuChE was under 50%; at hMAOB, under 40%; on hAChE (at 10 μM), under 50%; at hMAOA, under 40%. Moreover, the IC50 at EeAChE (mean ± SEM) came out at 60 nM; against EeAChE (values given in nM), 58.2 nM; against eqBuChE, 355 ± 8.41 nM. In addition, in assay [1], the “ORAC (Eq Trolox)” value amounted to 2.97 ± 0.16 Eq Trolox.

With `COc1ccc2[nH]cc(CCNC(=O)CN(CCCCC3CCN(Cc4ccccc4)CC3)C(=O)c3cc(=O)c4ccccc4o3)c2c1` [14n, N-(4–(1-benzylpiperidin-4-yl)butyl)-N-(2-((2–(5-methoxy-1H-indol-3-yl)ethyl)amino)-2-oxoethyl)-4-oxo-4H-chromene-2-carboxamide], on hBuChE, the “hBuChE, fold less active than Tacrine” value is reported as 2 fold. Moreover, the concentration for half-maximal inhibition (IC50) worked out at 11.9 ± 0.05 nM against hBuChE; 480 ± 10 nM at EeAChE (mean ± SEM); 21300 nM on hMAOB; 43.4 ± 1.37 nM on eqBuChE; 1730 ± 340 nM against hAChE; 2780 ± 120 nM against hMAOA. Also, the “ORAC (Eq Trolox)” value amounted to 3.04 Eq Trolox in assay [1] and 3.04 ± 0.36 Eq Trolox in assay [1] (listed as [14]n).

Consider `Nc1c2c(nc3ccccc13)CCCC2` [Tacrine, reference compound], for which, in assay [1], the “ORAC (Eq Trolox)” value stood at 0.2 ± 0.1 Eq Trolox.
